Like-named read-outs stand apart in the source and are kept apart here.
Target: T1, GLP-1R (Homo sapiens, UniProt P43220)
T1 construct: host or cells: GLP-1R CRE-bla CHO-K1 cells
Assay: EC20 GLP-1(9-36) PAM cAMP assay: dose response of compound in the presence of fixed concentration of GLP-1(9-36)
Type: cell-based
Settings: GLP-1R CRE-bla CHO-K1 cells, read-out: EC20 GLP-1(9-36) PAM EC50
Method in brief: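 Positive allosteric modulation read as cAMP accumulation: compound titrations (12 points) combined with an EC20 level of GLP-1(9-36) on CHO-K1 GLP-1R CRE-bla cells, IBMX present, 30 min, 37 °C, pH 7.4 buffer. Luminescence converted to cAMP via standards; non-linear fit gave EC50 and Emax.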

[1] = dose response of compound in presence of fixed concentration of GLP-1(9-36)
[2] = compound dose response with fixed concentration of GLP-1(9-36)

T1 sequence (P43220 24-463): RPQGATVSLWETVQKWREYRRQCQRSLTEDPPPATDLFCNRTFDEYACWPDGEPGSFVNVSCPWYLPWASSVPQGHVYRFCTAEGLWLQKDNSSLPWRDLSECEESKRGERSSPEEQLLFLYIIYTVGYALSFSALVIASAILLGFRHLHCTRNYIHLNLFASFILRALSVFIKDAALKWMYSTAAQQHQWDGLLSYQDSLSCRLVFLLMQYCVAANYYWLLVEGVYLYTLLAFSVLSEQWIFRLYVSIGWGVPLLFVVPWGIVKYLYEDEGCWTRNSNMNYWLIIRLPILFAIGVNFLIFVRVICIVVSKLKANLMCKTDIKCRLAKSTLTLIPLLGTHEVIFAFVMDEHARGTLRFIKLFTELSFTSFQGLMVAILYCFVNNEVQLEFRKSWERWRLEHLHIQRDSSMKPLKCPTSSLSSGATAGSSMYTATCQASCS
T1 sequence (P01275 100-127 partner limits assumed): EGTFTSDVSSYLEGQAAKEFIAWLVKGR

| SMILES | EC50 [1] | EC50 [2] |
| --- | --- | --- |
| CCCCCCOc1ccc(-c2cnc(-c3ccc(C[C@H](NC(=O)c4ccc(C(C)(C)C)s4)C(=O)N4CC[C@H](C(=O)O)C4)cc3)nc2)cc1 [Compound 763] | 800 to 2500 nM |  |
| CCC[C@H]1CC[C@H](C2CCN(c3cnc(-c4ccc(C[C@H](NC(=O)c5ccc(C(C)(C)C)s5)C(=O)NC5(C(=O)O)CCCC5)cc4)nc3)CC2)CC1 [Compound 1470] |  | < 800 nM |
| CCCCCCCOc1ccc(-c2cnc(-c3ccc(C[C@H](NC(=O)c4ccc(C(C)(C)C)s4)C(=O)NC4CC(C(=O)O)C4)cc3)nc2)cc1 (some centres unmarked) [Compound 602] | < 800 nM |  |
| Cc1cccc(Oc2ccc(-c3cnc(-c4ccc(C[C@H](NC(=O)c5ccc(C(C)(C)C)s5)C(=O)N[C@H](C)C(=O)O)cc4)nc3)cn2)c1 [Compound 1016] | 5000 to 10000 nM |  |
| CCCCCCCOc1ccc(-c2cnc(-c3ccc(C[C@H](NC(=O)c4ccc(C(C)(C)C)cc4)C(=O)N[C@H](CC(=O)O)C(=O)NC)cc3)nc2)cc1 [Compound 589] | 800 to 2500 nM |  |
| Cc1cc(-c2cnc(-c3ccc(C[C@H](NC(=O)c4ccc(C(C)(C)C)s4)C(=O)N4CC[C@H](C(=O)O)C4)cc3)nc2)ccc1OC(C)C [Compound 1087] | < 800 nM |  |
| CCCCCCCOc1ccc(-c2cnc(-c3ccc(C[C@@H](NC(=O)c4ccc(C(C)(C)C)cc4)C(=O)NCC(=O)O)cc3)nc2)cc1 [Compound 380] | 800 to 2500 nM |  |
| CCCCCOc1ccc(-c2cnc(-c3ccc(C[C@H](NC(=O)c4ccc(C(C)(C)C)cc4)C(=O)NCCC(=O)O)cc3)nc2)cc1 [Compound 710] | 5000 to 10000 nM |  |
| CCCCCCCOc1ccc(-c2cnc(-c3ccc(C[C@H](NC(=O)c4ccc(C(C)(C)C)s4)C(=O)NC(COC)C(=O)O)cc3)nc2)cc1 (some centres unmarked) [Compound 595] | < 800 nM |  |
| CCCCCCNc1ccc(-c2cnc(-c3ccc(C[C@H](NC(=O)c4ccc(C(C)(C)C)cc4)C(=O)N[C@H](C)C(=O)O)cc3)nc2)cc1 [Compound 729] | 800 to 2500 nM |  |
| CCCCCCCOc1ccc(-c2cnc(-c3ccc(C[C@H](NC(=O)c4ccc(CC)s4)C(=O)NC(C(=O)O)C(O)c4ccccc4)cc3)nc2)cc1 (some centres unmarked) [Compound 957] | 800 to 2500 nM |  |
| CCCCCCCOc1ccc(-c2cnc(-c3ccc(C[C@H](NC(=O)c4ccc(C5CC5)s4)C(=O)N4CC[C@H](C(=O)O)C4)cc3)nc2)cc1 [Compound 865] | 800 to 2500 nM |  |
| CCCCCCCOc1ccc(-c2cnc(-c3ccc(C[C@H](NC(=O)c4ccc(CC)cn4)C(=O)N4CC(C(=O)O)C4)cc3)nc2)cc1 [Compound 1106] | 2500 to 5000 nM |  |
| CCCCCCCOc1ccc(-c2cnc(-c3ccc(C[C@H](NC(=O)c4ccc(C(C)(C)C)s4)C(=O)N[C@@H](C(=O)O)C(C)C)cc3)nc2)cc1 [Compound 889] | 800 to 2500 nM |  |
| CC(C)(C)c1ccc(C(=O)N[C@@H](Cc2ccc(-c3ncc(-c4ccc(-c5ccccc5)cc4)cn3)cc2)C(=O)N2CC(C(=O)O)C2)s1 [Compound 1090] | < 800 nM |  |
| CCCCCCCOc1ccc(-c2cnc(-c3ccc(CC(NC(=O)c4ccc(C(C)(C)C)s4)C(=O)N4CCC(C(=O)O)C4)cc3)nc2)cc1 (centres unmarked) [Compound 625] | < 800 nM |  |
| CC(C)(C)c1ccc(C(=O)N[C@@H](Cc2ccc(-c3ncc(N4CCC(C5CCCCC5)CC4)cn3)cc2)C(=O)N2CC(C(=O)O)C2)s1 [Compound 1431] |  | < 800 nM |
| CCCCCCCOc1ccc(-c2cnc(-c3ccc(C[C@H](NC(=O)c4ccc(C(C)(C)C)cc4)C(=O)N4C[C@H](O)C[C@H]4C(=O)O)cc3)nc2)cc1 [Compound 491] | < 800 nM |  |
| CCCCCCCOc1ccc2nc(-c3ccc(C[C@H](NC(=O)c4ccc(C(C)(C)C)cc4)C(=O)N[C@H](C)C(=O)O)cc3)ccc2c1 [Compound 806] | 800 to 2500 nM |  |
| CCCc1ccc(-c2ccc(-c3cnc(-c4ccc(C[C@H](NC(=O)c5ccc(C(C)(C)C)s5)C(=O)N5CC(C(=O)O)C5)cc4)nc3)c(F)c2)cc1 [Compound 1208] |  | < 800 nM |
| CCCCCCCOc1ccc(-c2cnc(-c3ccc(C[C@H](NC(=O)c4ccc(C(C)(C)C)cc4)C(=O)N[C@@H](C)C(=O)O)cc3)nc2)cc1 [Compound 400] | < 800 nM |  |
| CC(C)(C)c1ccc(C(=O)N[C@@H](Cc2ccc(-c3ncc(-c4ccc(OC5CC5)cc4)cn3)cc2)C(=O)NC(C(=O)O)C(O)c2ccccc2)s1 (some centres unmarked) [Compound 930] | 5000 to 10000 nM |  |
| CC(C)Cc1ccc(-c2ccc(-c3cnc(-c4ccc(C[C@H](NC(=O)c5ccc(C(C)(C)C)s5)C(=O)N5CC(C(=O)O)C5)cc4)nc3)c(F)c2)cc1 [Compound 1221] |  | < 800 nM |
| CCCCCCCOc1ccc(-c2cnc(-c3ccc(C[C@H](NC(=O)c4ccc(C(C)(C)C)s4)C(=O)NCC4(C(=O)OC)CCNCC4)cc3)nc2)cc1 [Compound 605] | < 800 nM |  |

| SMILES | EC50 [1] | EC50 [2] |
| --- | --- | --- |
| CCCCCCCOc1ccc(-c2cnc(-c3ccc(C[C@H](NC(=O)c4ccc(C(=O)c5ccccc5)cc4)C(=O)N[C@H](C)C(=O)O)cc3)nc2)cc1 [Compound 981] | 2500 to 5000 nM |  |
| CC(C)(C)c1ccc(C(=O)N[C@@H](Cc2ccc(-c3ncc(-c4ccc(OCCC5CCCCC5)cc4)cn3)cc2)C(=O)NCCC(=O)O)cc1 [Compound 474, (S)-3-(2-(4-(tert-butyl)benzamido)-3-(4-(5-(4-(2-cyclohexylethoxy)phenyl)-pyrimidin-2-yl)phenyl)propanamido)propanoic acid] | 800 to 2500 nM |  |
| CCCOc1ccc(-c2cnc(-c3ccc(C[C@H](NC(=O)c4ccc(C(C)(C)C)s4)C(=O)N[C@H](C)C(=O)O)cc3)nc2)cc1 [Compound 732] | 800 to 2500 nM |  |
| CCCCCCCOc1ccc(-c2cnc(-c3ccc(C[C@H](NC(=O)c4ccc(C(C)(C)C)cc4)C(=O)N[C@@H](CC(=O)O)C(=O)N4CCCCC4)cc3)nc2)cc1 [Compound 504] | 2500 to 5000 nM |  |
| CC[C@H]1CC[C@H](c2ccc(-c3cnc(-c4ccc(C[C@H](NC(=O)c5ccc(C)cc5)C(=O)O)cc4)nc3)cc2)CC1 [Compound 1371] |  | 800 to 2500 nM |
| CCCCCCCOc1ccc(-c2cnc(-c3ccc(C[C@H](NC(=O)c4ccc(C(C)(C)C)s4)C(=O)NC(C(=O)O)C(O)c4ccc(C)cc4)cc3)nc2)cc1 (some centres unmarked) [Compound 900] | 800 to 2500 nM |  |
| CC(C)(C)c1ccc(C(=O)N[C@@H](Cc2ccc(-c3ncc(-c4ccc(OC5CCCCC5)cc4)cn3)cc2)C(=O)N2CC(C(=O)O)C2)s1 [Compound 921] | 5000 to 10000 nM |  |
| Cc1ccc(-c2cccc(-c3noc(-c4cnc(-c5ccc(C[C@H](NC(=O)c6ccc(C(C)(C)C)cc6)C(=O)NCCC(=O)O)cc5)nc4)n3)c2)cc1 [Compound 748] | 2500 to 5000 nM |  |
| C[C@@H](NC(=O)[C@H](Cc1ccc(-c2ncc(-c3ccc(N4CCCC4)cc3)cn2)cc1)NC(=O)c1ccc(C(C)(C)C)s1)C(=O)O [Compound 1300] |  | 800 to 2500 nM |
| CCCCCCCOc1ccc(-c2cnc(-c3ccc(C[C@H](NC(=O)c4ccc(C(C)(C)C)cc4)C(=O)NC(CC(=O)O)C4CCOCC4)cc3)nc2)cc1 (some centres unmarked) [Compound 551] | < 800 nM |  |
| CCCCCCCOc1ccc(-c2cnc(-c3ccc(C[C@H](NC(=O)c4ccc(C(C)(C)C)s4)C(=O)NC(Cc4nccs4)C(=O)O)cc3)nc2)cc1 (some centres unmarked) [Compound 592] | 800 to 2500 nM |  |
| CCC[C@H]1CC[C@H](C2CCN(c3cnc(-c4ccc(C[C@H](NC(=O)[C@H]5CC[C@H](C(C)(C)C)CC5)C(=O)N5CC(C(=O)O)C5)cc4)nc3)CC2)CC1 [Compound 1527] |  | 800 to 2500 nM |
| CC(C)(C)c1ccc(C(=O)N[C@@H](Cc2ccc(-c3ncc(-c4ccc(-c5ccc(F)cc5)cc4F)cn3)cc2)C(=O)N2CC(C(=O)O)C2)s1 [Compound 1213] |  | < 800 nM |
| CC(=O)c1ccc(-c2ccc(-c3cnc(-c4ccc(C[C@H](NC(=O)c5ccc(C(C)(C)C)s5)C(=O)O)cc4)nc3)cc2)cc1 [Compound 1352] |  | 800 to 2500 nM |
| CC(C)(C)c1ccc(C(=O)N[C@@H](Cc2ccc(-c3ncc(-c4ccc(-c5ccc(C(F)(F)F)cc5F)cc4F)cn3)cc2)C(=O)N2CC(C(=O)O)C2)s1 [Compound 1222] |  | < 800 nM |
| CCCCCCCOc1ccc(-c2cnc(-c3ccc(C[C@H](NC(=O)c4ccc(C(C)(C)C)cc4)C(=O)NC(Cc4ccc(OC)cc4)C(=O)O)cc3)nc2)cc1 (some centres unmarked) [Compound 568] | < 800 nM |  |
| CCCCCOc1ccc(-c2cnc(-c3ccc(C[C@H](NC(=O)c4ccc(C(C)(C)C)cc4)C(=O)N[C@H](C)C(=O)O)cc3)nc2)cc1 [Compound 718] | 2500 to 5000 nM |  |
| CCCCCCCOc1ccc(-c2cnc(-c3ccc(CC(NC(=O)c4ccc(C(C)(C)C)s4)C(=O)N4CC(C(=O)O)C4)cc3)nc2)cc1 (centres unmarked) [Compound 431] | < 800 nM |  |
| CCC[C@H]1CC[C@H](N2CCN(c3cnc(-c4ccc(C[C@H](NC(=O)c5ccc(C(C)(C)C)s5)C(=O)N5CC(C(=O)O)C5)cc4)nc3)CC2)CC1 [Compound 1435] |  | 800 to 2500 nM |
| CCCCCCCOc1ccc(-c2cnc(-c3ccc(C[C@H](NC(=O)c4ccc(C(C)(C)C)s4)C(=O)N[C@@H](C(=O)O)[C@H](O)c4ccccc4)cc3)nc2)cc1 [Compound 666, (2R,3R)-2-((S)-2-(5-(tert-butyl)thiophene-2-carboxamido)-3-(4-(5-(4-(heptyloxy)phenyl)-pyrimidin-2-yl)phenyl)propanamido)-3-hydroxy-3-phenylpropanoic acid] | 800 to 2500 nM |  |
| CCCCCCCOc1ccc(-c2cnc(-c3ccc(C[C@H](NC(=O)c4ccc(C(C)(C)C)s4)C(=O)N4CCC[C@H]4C(=O)O)cc3)nc2)cc1 [Compound 328, (S)-1-((S)-2-(5-(tert-butyl)thiophene-2-carboxamido)-3-(4-(5-(4-(heptyloxy)-phenyl)pyrimidin-2-yl)phenyl)propanoyl)pyrrolidine-2-carboxylic acid] | < 800 nM |  |
| CCCC(C)COc1ccc(-c2cnc(-c3ccc(C[C@H](NC(=O)c4ccc(C(C)(C)C)cc4)C(=O)NCCC(=O)O)cc3)nc2)cc1 (some centres unmarked) [Compound 707] | 5000 to 10000 nM |  |
| CC(C)(C)c1ccc(C(=O)N[C@@H](Cc2ccc(-c3ncc(-c4ccc(-c5ccc(C(F)(F)F)cc5)cc4F)cn3)cc2)C(=O)O)s1 [Compound 1364] |  | < 800 nM |
